Experimental data taken from patent US20160074405A1, “COMPOSITIONS AND METHODS FOR THE TREATMENT OF DRUG-INDUCED HAND-FOOT SYNDROME” (Duke University, priority 2009, published 2016).
Blank lines part the entries; values can stand above or below the compound they belong to.

Columns and labels:
[1] = PPE grade observed in the treated patients under anti-cancer drug; assay type: in vivo, human; conditions: individual patient before sildenafil
Description: (§1) The first patient had both metastatic pancreatic cancer and a history of mild Raynaud's syndrome.
(§2) The third patient was a person with a gastro-intestinal stromal tumor (GIST) refractory to imatinib, who was being treated with sunitinib. […] They were treated with topical 2% sildenafil three times daily. To ensure activity in the setting of potentially significant costs for custom formulation, this patient applied topical sildenafil to only their left hand. […] This patient later was dosed with 1% topical sildenafil once per week. In addition, this patient experienced sunitinib-induced gastrointestinal toxicities (enteritis, diarrhea), which were treated with oral sildenafil to allow systemic absorption. The initial dose was 50 mg oral sildenafil daily. […] Thereafter lower doses were used on an as needed basis, including a quarter tablet (50 mg size) given once or twice per week.
(§3) A fourth patient was a person with metastatic angiosarcoma, who was treated with sunitinib for over four years.

[2] = patients treated with the agent; cited from earlier work
[3] = Topical sildenafil treatment of patients with drug-induced PPE (case reports); assay type: in vivo, human
Description: Four patients were treated with topical sildenafil for PPE, two with PPE related to capecitabine and two with PPE related to sunitinib. […] This initial clinical experience was outside the context of formal clinical trials, since no such trials were available.
as §1
Administration of 5FU was held due to the severity and persistence of the hand-foot syndrome. Topical sildenafil was applied to only the left hand.
as §2, §3

[4] = Oral sildenafil treatment of sunitinib-induced gastrointestinal toxicities and hand-foot syndrome (case report); assay type: in vivo, human; conditions: third patient; 50 mg oral sildenafil daily
Description: as §2

[5] = Side effects of sildenafil treatment in the PPE patients; assay type: in vivo, human
Description: The third patient was a person with a gastro-intestinal stromal tumor (GIST) refractory to imatinib, who was being treated with sunitinib. Despite a gratifying response to sunitinib, they experienced grade 3 sunitinib-related PPE that required frequent dose holding and reduction. They were treated with topical 2% sildenafil three times daily. To ensure activity in the setting of potentially significant costs for custom formulation, this patient applied topical sildenafil to only their left hand. […] After only 3 doses (1 day) they noticed an improvement on the tenderness and redness of their hands. […] The improvement was “like day and night.” The right hand had all of these complications. These were severe enough that the patient had difficulty physically closing their hand more than halfway due to skin thickening as well as pain. Their left hand was completely flexible. After administration to both hands, they were able for the first time in many months to shake hands and make a first without difficulty or pain and they restarted playing their guitar in their church choir. This patient later was dosed with 1% topical sildenafil once per week. In addition, this patient experienced sunitinib-induced gastrointestinal toxicities (enteritis, diarrhea), which were treated with oral sildenafil to allow systemic absorption. The initial dose was 50 mg oral sildenafil daily. […] Thereafter lower doses were used on an as needed basis, including a quarter tablet (50 mg size) given once or twice per week.
Since each of these patients initially had only one affected skin region treated, followed by treatment of the other similarly affected regions, each patient was able to serve as her/his own control.

- PPE grade under anti-cancer treatment [1]: 3 grade
SMILES: CCN(CC)CCNC(=O)c1c(C)[nH]c(/C=C2\C(=O)Nc3ccc(F)cc32)c1C [sunitinib]
- frequency of any grade (grade 1-3) PPE [2]: up to 21%
- frequency of severe (grade 3) PPE [2]: up to 5%

SMILES: CCCc1nn(C)c2c(=O)[nH]c(-c3cc(S(=O)(=O)N4CCN(C)CC4)ccc3OCC)nc12 [sildenafil]
- patient's pain and size and depth of the digital ulcers ([3]; first patient (capecitabine, Raynaud's), topical 2% applied to ulcers, within a week): marked improvement
- PPE of the treated palm ([3]; first patient, topical, full palm of one hand): significant improvement
- PPE of treated right hand and foot ([3]; fourth patient (sunitinib 37.5 mg per day, grade 1 at start), topical 2% in cold cream base): improved markedly
- time to marked improvement of treated right hand and foot ([3]; fourth patient, topical 2% in cold cream base): 1-2 weeks
- pain and redness of the left hand ([3]; second patient (capecitabine/5FU regimens), topical to left hand only, by day 8): improvement
- hand-foot syndrome in both hands ([3]; second patient, by day 72): resolved
- tenderness and redness of hands ([3]; third patient (sunitinib, grade 3 PPE), topical 2% three times daily, left hand, after 3 doses (1 day)): improvement
- multiple blisters, cracks, and callousness ([3]; third patient, topical 2% three times daily, after 4 weeks): resolved essentially completely
- pain, redness and blisters ([3]; third patient, topical 2% three times daily, by one week): markedly improved
- PPE-related symptoms ([3]; topical sildenafil, patients with capecitabine- or sunitinib-related PPE): significantly improved
- gastrointestinal toxicities and hand-foot syndrome [4]: rapidly improved
- time to improvement of gastrointestinal toxicities and hand-foot syndrome [4]: ≤ 1 days
- adverse impact on cancer's response to treatment ([5]; all treated patients): no patient had any suggestion of an adverse impact
- local or systemic side effects ([5]; all treated patients): No local or systemic side effects
- side effects such as headache, chest pain, lightheadedness, spontaneous erections ([5]; third patient, topical 2% three times daily, month of treatment): no side effects

SMILES: CNC(=O)c1cc(Oc2ccc(NC(=O)Nc3ccc(Cl)c(C(F)(F)F)c3)cc2)ccn1 [sorafenib]
- frequency of any grade (grade 1-3) PPE [2]: ≤ 30%
- frequency of severe (grade 3) PPE [2]: ≤ 8%

- PPE grade under anti-cancer treatment [1]: 2-3 grade
SMILES: CCCCCOC(=O)Nc1nc(=O)n([C@@H]2O[C@H](C)[C@@H](O)[C@H]2O)cc1F [capecitabine]
- frequency of any grade (grade 1-3) PPE [2]: ≤ 54%
- frequency of severe (grade 3) PPE [2]: ≤ 17%
